According to patent publication US12139520B2 (priority 2020, dated 2024):
Numbered stars: 1 amine (or outer) side, 2 acyl side, 3 side chain; on linkers, the order of the positions; unused ones are H or OH. Bridge positions count the residues as written; N and C are the ends. Square brackets hold non-standard residues; d marks the D form. Peptide text beside a SMILES is read from it. * marks the point of attachment. C20 diacid = O=C(O)CCCCCCCCCCCCCCCCCCC(=O)*; γGlu = O=C(O)[C@H](CCC(=O)[*:2])N[*:1]; Hyp = O=C(O)[C@@H]1C[C@@H](O)CN1

Legend:
hAMY3 receptor = molecular target: T1, hAMY3 receptor (Homo sapiens, UniProt O60896+P30988); experiment: cAMP assay for in vitro receptor activation, hAMY3-R; type: cell-based; settings: cAMP assay, hAMY3 receptor; read-out: hAMY3R EC50
T1 sequence (P30988 25-474): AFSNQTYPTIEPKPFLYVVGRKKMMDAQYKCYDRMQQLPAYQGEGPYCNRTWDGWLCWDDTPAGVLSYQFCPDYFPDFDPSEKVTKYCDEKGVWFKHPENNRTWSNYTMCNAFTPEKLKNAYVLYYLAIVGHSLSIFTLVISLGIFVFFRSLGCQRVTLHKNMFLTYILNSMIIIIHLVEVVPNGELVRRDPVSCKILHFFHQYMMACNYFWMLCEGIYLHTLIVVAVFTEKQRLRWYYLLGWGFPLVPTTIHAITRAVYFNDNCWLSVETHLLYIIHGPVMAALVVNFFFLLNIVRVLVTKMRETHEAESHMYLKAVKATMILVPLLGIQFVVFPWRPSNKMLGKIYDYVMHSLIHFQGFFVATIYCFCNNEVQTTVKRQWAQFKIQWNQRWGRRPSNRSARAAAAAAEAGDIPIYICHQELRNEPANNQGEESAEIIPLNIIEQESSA
T1 sequence (O60896 24-148 partner): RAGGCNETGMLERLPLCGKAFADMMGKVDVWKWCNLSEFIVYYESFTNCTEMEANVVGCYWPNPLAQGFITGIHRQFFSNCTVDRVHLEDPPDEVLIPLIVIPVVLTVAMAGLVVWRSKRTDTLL
Method in brief: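 Receptor activation was measured as cAMP accumulation in a monoclonal cell line stably overexpressing hAMY3. Stimulation with graded doses lasted 30 min at room temperature in the presence of 0.5 mM IBMX, with human amylin as positive control.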

[1] = Acute food intake study in lean rats; type: in vivo, rat; settings: single SC injection, lean healthy rats; for Average cumulative food intake: up to 48 h, P < 0.001 vs vehicle
Experimental: General Protocols for Acute Food Intake Study
The effect on cumulative food intake was measured in male Sprague Dawley rats (6 weeks of age, Taconic, Denmark) following a single dose using a fully automated food intake monitoring system (HM-2; MBRose ApS, Faaborg, Denmark), allowing for advanced synchronous real-time monitoring of food intake behaviour of individual animals. The animals were housed in groups of 4 in a light-, temperature-, and humidity-controlled room (a 12/12 LD cycle, lights on at 02:00 AM; 22±2° C.; 50% relative humidity). The mice had ad libitum access to regular chow diet (Altromin 1324, Brogaarden A/S, Lynge, Denmark) and domestic quality tap water. Mice arrived at day 7, and a minimum of 5 days of habituation to the system was allowed prior to beginning of the study. During these days, the animals were handled daily to accustom them to the experimental paradigm. On the day of dosing, the animals were randomized into groups according to body weight. Animals were fasted for four hours prior to dosing. Animals were dosed SC 30 or 180 min prior to lights out, and food intake data were collected automatically for a total of 48 h post-dosing with automatic food recordings every 5 min.

hAM1 receptor = hAM1 receptor (Homo sapiens, UniProt O60895+Q16602); experiment: cAMP assay for in vitro receptor activation, hAM1-R; type: cell-based; settings: cAMP assay, hAM1 receptor; read-out: hAM1R EC50
hAM1 receptor, sequence (Q16602 23-461): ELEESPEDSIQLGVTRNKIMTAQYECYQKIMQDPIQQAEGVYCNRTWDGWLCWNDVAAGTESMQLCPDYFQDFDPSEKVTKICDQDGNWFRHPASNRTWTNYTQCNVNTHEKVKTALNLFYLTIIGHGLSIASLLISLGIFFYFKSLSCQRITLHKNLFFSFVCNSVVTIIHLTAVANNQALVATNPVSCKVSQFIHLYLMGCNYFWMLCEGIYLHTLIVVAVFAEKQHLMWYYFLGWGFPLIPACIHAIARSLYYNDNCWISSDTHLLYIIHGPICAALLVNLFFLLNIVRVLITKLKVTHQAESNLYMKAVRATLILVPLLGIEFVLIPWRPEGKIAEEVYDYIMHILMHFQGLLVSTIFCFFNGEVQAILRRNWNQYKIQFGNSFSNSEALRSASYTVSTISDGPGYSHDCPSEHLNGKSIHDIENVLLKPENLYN
hAM1 receptor, sequence (O60895 43-175 partner): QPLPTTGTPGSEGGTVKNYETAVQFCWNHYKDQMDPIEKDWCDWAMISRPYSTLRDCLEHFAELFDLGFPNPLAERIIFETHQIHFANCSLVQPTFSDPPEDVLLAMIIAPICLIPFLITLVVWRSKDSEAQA
Method in brief: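 Receptor activation, read as cAMP, was assessed in thawed cells of a monoclonal hAM1-overexpressing stable line, plated at 8000 cells/well in DPBS supplemented with 0.05% casein and 0.5 mM IBMX.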

[2] = Physical stability of peptide analogues (Thioflavin T fibrillation); type: physicochemical; settings: maximum ThT signal normalized between hAMY maximum and buffer background; 40° C., shaking, four days; pH 7 per table title
Method in brief: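 Peptides in 50 mM sodium acetate pH 4 or 50 mM sodium phosphate pH 7 were preincubated 1 h, mixed with 4 μM ThT, held at 40° C with 700 rpm shaking before each read. Fluorescence (ex 450/em 480 nm) every 10 min for four days; LOESS-smoothed maximum signal normalized in percent between hAMY and buffer.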

| Compound | EC50 (hAMY3 receptor) | EC50 (hAM1 receptor) | Max ThT signal (%) [2] | cumulative food intake, % to vehicle ([1]; 10 nmol/kg) | Average cumulative food intake ([1]; 10 nmol/kg) | cumulative food intake, % to vehicle ([1]; 30 nmol/kg) | Average cumulative food intake ([1]; 30 nmol/kg) |
| --- | --- | --- | --- | --- | --- | --- | --- |
| CC[C@H](C)[C@H](NC(=O)[C@H](CCC(N)=O)NC(=O)[C@H](Cc1c[nH]cn1)NC(=O)[C@H](C)NC(=O)[C@H](CC(C)C)NC(=O)[C@H](CCCNC(=N)N)NC(=O)[C@H](CC(=O)O)NC(=O)[C@@H](NC(=O)[C@@H](NC(=O)[C@@H]1CSSC[C@H](NC(=O)[C@H](CCCCN)NC(=O)CC[C@H](NC(=O)CCCCCCCCCCCCCCCCCCC(=O)O)C(=O)O)C(=O)N[C@@H](CC(N)=O)C(=O)N[C@@H]([C@@H](C)O)C(=O)N[C@@H](C)C(=O)N[C@@H]([C@@H](C)O)C(=O)N1)[C@@H](C)O)C(C)C)C(=O)N[C@@H](Cc1ccc(O)cc1)C(=O)N[C@@H](CCC(N)=O)C(=O)N[C@@H](Cc1ccccc1)C(=O)N[C@H](C(=O)N[C@@H](CC(=O)O)C(=O)N[C@@H](CCCCN)C(=O)N[C@@H](CC(=O)O)C(=O)N[C@@H](CCCCN)C(=O)N[C@@H](CC(=O)O)C(=O)N[C@@H](CC(N)=O)C(=O)N[C@H](C(=O)N[C@@H](C)C(=O)N1CCC[C@H]1C(=O)N1CCC[C@H]1C(=O)N[C@H](C(=O)N[C@@H](CC(N)=O)C(=O)N[C@H](C(=O)NCC(=O)N[C@@H](CO)C(=O)N[C@@H](CC(N)=O)C(=O)NCC(=O)N1C[C@H](O)C[C@H]1C(N)=O)C(C)C)[C@@H](C)O)C(C)C)[C@@H](C)O [compound 4] ({C20 diacid-γGlu}-KCNTATCTVDRLAHQIYQFTDKDKDNVAPPTNVGSNG[Hyp]-NH2; disulfide 2-7) | 0.006 nM | > 5000 nM | – | 59.23% | 26.3 g | 30.86% | 13.7 g |
| CC[C@H](C)[C@H](NC(=O)[C@H](CCC(N)=O)NC(=O)[C@H](Cc1c[nH]cn1)NC(=O)[C@H](C)NC(=O)[C@H](CC(C)C)NC(=O)[C@H](CCCNC(=N)N)NC(=O)[C@H](CCC(N)=O)NC(=O)[C@@H](NC(=O)[C@@H](NC(=O)[C@@H]1CSSC[C@H](NC(=O)[C@H](CCCCN)NC(=O)CC[C@H](NC(=O)CCCCCCCCCCCCCCCCCCC(=O)O)C(=O)O)C(=O)N[C@@H](CC(N)=O)C(=O)N[C@@H]([C@@H](C)O)C(=O)N[C@@H](C)C(=O)N[C@@H]([C@@H](C)O)C(=O)N1)[C@@H](C)O)C(C)C)C(=O)N[C@@H](Cc1ccc(O)cc1)C(=O)N[C@@H](CCC(N)=O)C(=O)N[C@@H](Cc1ccccc1)C(=O)N[C@H](C(=O)N[C@@H](CC(=O)O)C(=O)N[C@@H](CCCCN)C(=O)N[C@@H](CC(=O)O)C(=O)N[C@@H](CCCCN)C(=O)N[C@@H](CC(=O)O)C(=O)N[C@@H](CC(N)=O)C(=O)N[C@H](C(=O)N[C@@H](C)C(=O)N1CCC[C@H]1C(=O)N1CCC[C@H]1C(=O)N[C@H](C(=O)N[C@@H](CCCCN)C(=O)N[C@H](C(=O)NCC(=O)N[C@@H](CO)C(=O)N[C@@H](CC(N)=O)C(=O)NCC(=O)N1C[C@H](O)C[C@H]1C(N)=O)C(C)C)[C@@H](C)O)C(C)C)[C@@H](C)O [compound 60] ({C20 diacid-γGlu}-KCNTATCTVQRLAHQIYQFTDKDKDNVAPPTKVGSNG[Hyp]-NH2; disulfide 2-7) | 0.012 nM | > 5000 nM | – | 69.59% | 30.9 g | 45.72% | 20.3 g |
| CC[C@H](C)[C@H](NC(=O)[C@H](CCCCN)NC(=O)[C@@H](NC(=O)[C@H](CCCNC(=N)N)NC(=O)[C@@H]1CCCN1C(=O)[C@H](C)NC(=O)[C@@H](NC(=O)[C@H](CC(N)=O)NC(=O)[C@H](CC(=O)O)NC(=O)[C@H](CCCCN)NC(=O)[C@H](CC(=O)O)NC(=O)[C@H](CCCCN)NC(=O)[C@H](CC(=O)O)NC(=O)[C@@H](NC(=O)[C@H](Cc1ccccc1)NC(=O)[C@H](CCC(N)=O)NC(=O)[C@H](Cc1ccc(O)cc1)NC(=O)[C@@H](NC(=O)[C@H](CCC(N)=O)NC(=O)[C@H](Cc1c[nH]cn1)NC(=O)[C@H](C)NC(=O)[C@H](CC(C)C)NC(=O)[C@H](CCCNC(=N)N)NC(=O)[C@H](CCC(N)=O)NC(=O)[C@@H](NC(=O)[C@@H](NC(=O)[C@@H]1CSSC[C@H](NC(=O)CN)C(=O)N[C@@H](CCCNC(=N)N)C(=O)N[C@@H](Cc2ccccc2)C(=O)NCC(=O)N[C@@H]([C@@H](C)O)C(=O)N1)[C@@H](C)O)C(C)C)[C@@H](C)CC)[C@@H](C)O)C(C)C)[C@@H](C)O)C(=O)NCC(=O)N1CCC[C@H]1C(=O)N[C@@H](CC(N)=O)C(=O)NCC(=O)N1C[C@H](O)C[C@H]1C(N)=O [compound 124] (H-GCRFGTCTVQRLAHQIYQFTDKDKDNVAPRTKIGPNG[Hyp]-NH2; disulfide 2-7) | 0.027 nM | – | 4.800% | 59.46% | 24.2 g | – | – |

Continued by falling EC50 (hAMY3 receptor), values first:

| EC50 (hAMY3 receptor) | EC50 (hAM1 receptor) | Max ThT signal (%) [2] | Compound | cumulative food intake, % to vehicle ([1]; 10 nmol/kg) | Average cumulative food intake ([1]; 10 nmol/kg) | cumulative food intake, % to vehicle ([1]; 30 nmol/kg) | Average cumulative food intake ([1]; 30 nmol/kg) |
| --- | --- | --- | --- | --- | --- | --- | --- |
| 0.016 nM | > 5000 nM | – | CC[C@H](C)[C@H](NC(=O)[C@H](C)NC(=O)CNC(=O)[C@H](Cc1ccccc1)NC(=O)[C@H](CC(N)=O)NC(=O)[C@H](CC(N)=O)NC(=O)[C@H](CO)NC(=O)[C@H](CO)NC(=O)[C@H](Cc1c[nH]cn1)NC(=O)[C@@H](NC(=O)[C@H](CC(C)C)NC(=O)[C@H](Cc1ccccc1)NC(=O)[C@H](CC(N)=O)NC(=O)[C@H](C)NC(=O)[C@H](CC(C)C)NC(=O)[C@H](CCCNC(=N)N)NC(=O)[C@H](CCC(N)=O)NC(=O)[C@@H](NC(=O)[C@H](C)NC(=O)[C@@H]1CSSC[C@H](NC(=O)[C@@H](N)CCCCN)C(=O)N[C@@H](CC(N)=O)C(=O)N[C@@H]([C@@H](C)O)C(=O)N[C@@H](C)C(=O)N[C@@H]([C@@H](C)O)C(=O)N1)[C@@H](C)O)C(C)C)C(=O)N[C@@H](C)C(=O)N1CCC[C@H]1C(=O)N[C@@H](CO)C(=O)N[C@H](C(=O)N[C@@H](CCCCN)C(=O)N[C@H](C(=O)NCC(=O)N[C@@H](CO)C(=O)N[C@@H](CC(N)=O)C(=O)NCC(=O)N[C@@H](Cc1ccc(O)cc1)C(N)=O)C(C)C)[C@@H](C)O [compound 93] (H-KCNTATCATQRLANFLVHSSNNFGAIAPSTKVGSNGY-NH2; disulfide 2-7; N-terminus assumed) | 46.93% | 19.1 g | – | – |
| 0.013 nM | – | – | CC[C@H](C)[C@H](NC(=O)[C@H](CCC(N)=O)NC(=O)[C@H](Cc1c[nH]cn1)NC(=O)[C@H](C)NC(=O)[C@H](CC(C)C)NC(=O)[C@H](CCCNC(=N)N)NC(=O)[C@H](CCC(N)=O)NC(=O)[C@@H](NC(=O)[C@@H](NC(=O)[C@@H]1CSSC[C@H](NC(=O)[C@H](CCCCN)NC(=O)CC[C@H](NC(=O)CCCCCCCCCCCCCCCCCCC(=O)O)C(=O)O)C(=O)N[C@@H](CC(N)=O)C(=O)N[C@@H]([C@@H](C)O)C(=O)N[C@@H](C)C(=O)N[C@@H]([C@@H](C)O)C(=O)N1)[C@@H](C)O)C(C)C)C(=O)N[C@@H](C)C(=O)N[C@@H](CCC(N)=O)C(=O)N[C@@H](Cc1ccccc1)C(=O)N[C@H](C(=O)N[C@@H](CC(=O)O)C(=O)N[C@@H](CCCCN)C(=O)N[C@@H](CC(=O)O)C(=O)N[C@@H](CCCCN)C(=O)N[C@@H](CC(=O)O)C(=O)N[C@@H](CC(N)=O)C(=O)N[C@H](C(=O)N[C@@H](C)C(=O)N1CCC[C@H]1C(=O)N1CCC[C@H]1C(=O)N[C@H](C(=O)N[C@@H](CC(N)=O)C(=O)N[C@H](C(=O)NCC(=O)N[C@@H](CO)C(=O)N[C@@H](CC(N)=O)C(=O)N[C@@H](CO)C(=O)N1C[C@H](O)C[C@H]1C(N)=O)C(C)C)[C@@H](C)O)C(C)C)[C@@H](C)O [compound 69] ({C20 diacid-γGlu}-KCNTATCTVQRLAHQIAQFTDKDKDNVAPPTNVGSNS[Hyp]-NH2; disulfide 2-7) | 17.52% | 7.13 g | – | – |
